# Data: patent publication US20110159122A1, “COMBINATION OF EXTRACTS OF VARIOUS PLANTS FOR IMPROVING THE SYMPTOMS OF DEMENTIA DISORDERS” (Kneipp-Werke Kneipp-Mittel-Zentrale GmbH & Co,KG, priority 2008, published 2011)
# Assays:
# central nervous system = experiment: tele-stereo EEG (electroencephalography) of rats after oral administration; type: in vivo; details: for effect of the compound according to formula I reached by known rooibos constituents: approximately equimolar quantities
# Excerpt: In the context of the present invention, the pharmacological activity of the compound according to the invention of formula I was compared with the known constituents of the rooibos extract, such as aspalathin, catechin or (−)-epicatechin.
# Since these drugs have a broad spectrum of side effects, the use of a rooibos extract with the compound according to formula I is advantageous as a drug because natural substances can usually be expected to have a lower rate of side effects. […] This is not generally commonplace for flavonoids.
# [1] = solubility during the preparation of the HPLC standard solutions; type: physicochemical; details: preparation of the standard solutions for HPLC
# monoamine oxidase = details: Plantextrakt, 2005; cited from earlier work
compound,measurement,setting,value
"O=C(CCc1ccc(O)c(O)c1)c1c(O)c(C2OC(CO)C(O)C(O)C2O)c(O)c(C2c3c(O)cc(O)cc3OC(c3ccc(O)c(O)c3)C2O)c1O (centres unmarked) [compound of formula I, aspacat]",crossing of the blood-brain barrier,central nervous system; concluded from the in vivo EEG data,evidently also crosses the blood-brain barrier
same,discriminant analysis of the in vivo data,"central nervous system; rat, in vivo","a relationship with the drugs for the treatment of dementias, Morbus Parkinson, depression and painful conditions"
same,pharmacological activity on the central nervous system in tele-stereo EEG,"central nervous system; rats, oral administration",marked pharmacological activity on the central nervous system
same,changes in the EEG frequencies,"central nervous system; rats, oral administration, as known for galantamine, tacrine, L-DOPA, nefopam",dose-dependent changes in the EEG frequencies
same,pharmacological activity compared with known constituents of the rooibos extract,"central nervous system; versus aspalathin, catechin, (−)-epicatechin",higher pharmacological activity than these known constituents of the rooibos extract
catechin,effect of the compound according to formula I reached by known rooibos constituents,central nervous system,cannot be achieved with approximately equimolar quantities
"O=c1cc(-c2ccc(O)c(O)c2)oc2c([C@@H]3O[C@H](CO)[C@@H](O)[C@H](O)[C@H]3O)c(O)cc(O)c12 [orientin, orientin(luteolin-8-C-glucoside)]",solubility in standard solutions,[1],exhibited solubility problems
O=c1c(O)c(-c2ccc(O)c(O)c2)oc2cc(O)cc(O)c12 [Quercetin],inhibition of the production of monoamine oxidase,monoamine oxidase,capable of inhibiting the production of monoamine oxidase
"O=c1cc(-c2ccc(O)cc2)oc2c([C@@H]3O[C@H](CO)[C@@H](O)[C@H](O)[C@H]3O)c(O)cc(O)c12 [vitexin, vitexin(apigenin-8-C-glucoside)]",solubility in standard solutions,[1],exhibited solubility problems
Oc1cc(O)c2c(c1)O[C@H](c1ccc(O)c(O)c1)[C@H](O)C2 [(−)-epicatechin],effect of the compound according to formula I reached by known rooibos constituents,central nervous system,cannot be achieved with approximately equimolar quantities
O=C(CCc1ccc(O)c(O)c1)c1c(O)cc(O)c([C@@H]2O[C@H](CO)[C@@H](O)[C@H](O)[C@H]2O)c1O [aspalathin],effect of the compound according to formula I reached by known rooibos constituents,central nervous system,cannot be achieved with approximately equimolar quantities
